Values quoted from earlier work in patent US20090022706A1, “SUBSTITUTED CYCLOHEXENES” (Auspex Pharmaceuticals, Inc., priority 2007, published 2009).

What was measured:
[1] = test system: Toll-Like Receptor 4 (TLR4)-mediated cytokine production; conditions: under pro-inflammatory conditions
[2] = test system: nitric oxide (NO) production

CCOC(=O)C1=CCCC[C@H]1S(=O)(=O)Nc1ccc(F)cc1Cl [TAK-242, (R)-6-(2-chloro-4-fluoro-phenylsulfamoyl)-cyclohex-1-enecarboxylic acid ethyl ester]
production of various cytokines, such as IL-1β, IL-6, IL-12, and TNF-α [1]: inhibits
in vitro production of nitric oxide (NO) [2]: inhibits
